# Measured values published in ChEMBL document CHEMBL4414648, “Novel Benzohydroxamate-Based Potent and Selective Histone Deacetylase 6 (HDAC6) Inhibitors Bearing a Pentaheterocyclic Scaffold: Design, Synthesis, and Biological Evaluation” (J Med Chem, 2019).
# Calls of active or inactive are those of the source. The rule behind the calls is not given here.
# Tests used:
# [1] = Total AUC in CD-1 mouse at 5.2 mg/kg, po measured within 6 hrs by LC-MS/MS analysis; format: ADME, organism-based; set-up: dose 5.2 mg/kg, route oral, time AUCmax; conditions: in vivo
# 697 = test: Cytotoxicity against human 697 cells after 48 hrs by CellTiter 96 aqueous one solution assay; format: cell-based; conditions: Homo sapiens, 697, 48 h
# [2] = Toxicity in C57BL/6 mouse assessed as effect on grooming up to 50 mg/kg, ip administered for 5 days/week for two cycles; format: organism-based; conditions: in vivo, 120 h
# [3] = Stability in human plasma assessed as parent compound remaining at 100 uM after 4 hrs by LC-MS/MS analysis; format: ADME, cell-free; conditions: read-out: Stability
# [4] = Drug level in CD-1 mouse at […], iv measured after 5 mins by LC-MS/MS analysis; format: ADME, organism-based; conditions: in vivo, read-out: Drug uptake
# [5] = Toxicity in C57BL/6 mouse assessed as effect on postural changes up to 50 mg/kg, ip administered for 5 days/week for two cycles and measured daily starting from day 1; format: organism-based; conditions: in vivo, 120 h
# [6] = Drug level in C57BL/6 mouse plasma at 30 mg/kg, ip measured after 24 hrs; format: ADME, organism-based; conditions: in vivo, BLD = below limit of detection
# [7] = Toxicity in C57BL/6 mouse assessed as induction of piloerection up to 50 mg/kg, ip administered for 5 days/week for two cycles and measured daily starting from day 1; format: organism-based; conditions: in vivo, 120 h
# [8] = Cmax in CD-1 mouse at 5.2 mg/kg, po measured within 6 hrs by LC-MS/MS analysis; format: ADME, organism-based; set-up: dose 5.2 mg/kg, route oral; conditions: in vivo
# [9] = Oral bioavailability in rat; format: ADME, organism-based; conditions: in vivo
# [10] = Toxicity in C57BL/6 mouse assessed as effect on platelet level at 10 mg/kg, ip administered for 5 days/week for two cycles and measured 60 mins post last dose by cell counter method relative to control; format: organism-based; conditions: in vivo, 1 h
# [11] = Oral bioavailability in CD-1 mouse at 5.2 mg/kg measured within 6 hrs by LC-MS/MS analysis; format: ADME, organism-based; conditions: in vivo
# [12] = Toxicity in C57BL/6 mouse assessed as induction of leukopenia up to 50 mg/kg, ip administered for 5 days/week for two cycles; format: organism-based; conditions: in vivo, 120 h
# [13] = Terminal half life in CD-1 mouse at […], iv measured within 6 hrs by LC-MS/MS analysis; format: ADME, organism-based; conditions: in vivo, read-out: beta t1/2 (converted)
# [14] = Tmax in CD-1 mouse at 5.2 mg/kg, po measured within 6 hrs by LC-MS/MS analysis; format: ADME, organism-based; conditions: in vivo
# [15] = Toxicity in C57BL/6 mouse assessed as effect on spasms up to 50 mg/kg, ip administered for 5 days/week for two cycles and measured daily starting from day 1; format: organism-based; conditions: in vivo, 120 h
# [16] = Stability in human liver S9 fraction assessed as parent compound remaining at 5 uM after 90 mins in presence of NADPH by LC-MS/MS analysis; format: ADME, subcellular; conditions: read-out: Stability
# [17] = Toxicity in C57BL/6 mouse assessed as effect on WBC level at 10 mg/kg, ip administered for 5 days/week for two cycles and measured 60 mins post last dose by beckman coulter counting method relative to control; format: organism-based; conditions: in vivo, 1 h
# [18] = Total clearance in CD-1 mouse at […], iv measured within 6 hrs by LC-MS/MS analysis; format: ADME, organism-based; conditions: in vivo
# [19] = Toxicity in C57BL/6 mouse assessed as inactivity/hyperactivity up to 50 mg/kg, ip administered for 5 days/week for two cycles and measured daily starting from day 1; format: organism-based; conditions: in vivo, 120 h
# [20] = Toxicity in C57BL/6 mouse assessed as effect on body weight at 10 mg/kg, ip administered for 5 days/week for two cycles and measured every other day relative to control; format: organism-based; conditions: in vivo, 120 h
# [21] = Apparent volume of distribution at steady state in CD-1 mouse at […], iv measured within 6 hrs by LC-MS/MS analysis; format: ADME, organism-based; conditions: in vivo, read-out: Vdss(app)
# [22] = Toxicity in C57BL/6 mouse assessed as effect on WBC level at 30 mg/kg, ip administered for 5 days/week for two cycles and measured 60 mins post last dose by beckman coulter counting method relative to control; format: organism-based; conditions: in vivo, 1 h
# Mus musculus = test: In vivo inhibition of HDAC6 in C57BL/6 mouse assessed as increase in acetylated tubulin level in spleen cytosolic protein extract at 30 mg/kg, ip measured after 24 hrs by ELISA; format: functional, organism-based
# [23] = Stability in rat plasma assessed as parent compound remaining at 100 uM after 4 hrs by LC-MS/MS analysis; format: ADME, cell-free; conditions: read-out: Stability
# [24] = Toxicity in ip dosed C57BL/6 mouse administered for 5 days/week for two cycles; format: organism-based; conditions: in vivo
# [25] = Toxicity in C57BL/6 mouse assessed as effect on platelet level at 50 mg/kg, ip administered for 5 days/week for two cycles and measured 60 mins post last dose by cell counter method relative to control; format: organism-based; conditions: in vivo, 1 h
# PBMC = test: Cytotoxicity against human PBMC cells after 72 hrs by CellTiter 96 aqueous one solution assay; format: cell-based
# [26] = Toxicity in C57BL/6 mouse assessed as effect on platelet level at 30 mg/kg, ip administered for 5 days/week for two cycles and measured 60 mins post last dose by cell counter method relative to control; format: organism-based; conditions: in vivo, 1 h
# [27] = Stability in rat liver S9 fraction assessed as parent compound remaining at 5 uM after 90 mins in presence of NADPH by LC-MS/MS analysis; format: ADME, subcellular; conditions: read-out: Stability
# [28] = Toxicity in C57BL/6 mouse assessed as effect on body weight at 30 mg/kg, ip administered for 5 days/week for two cycles and measured every other day relative to control; format: organism-based; conditions: in vivo, 120 h
# [29] = Toxicity in C57BL/6 mouse assessed as effect on body weight at 50 mg/kg, ip administered for 5 days/week for two cycles and measured every other day relative to control; format: organism-based; conditions: in vivo, 120 h
# [30] = Oral bioavailability in dog; format: ADME, organism-based, Canis lupus familiaris; conditions: in vivo
# [31] = Toxicity in C57BL/6 mouse assessed as effect on social behavior up to 50 mg/kg, ip administered for 5 days/week for two cycles; format: organism-based; conditions: in vivo, 120 h
# [32] = Toxicity in C57BL/6 mouse assessed as effect on body temperature up to 50 mg/kg, ip administered for 5 days/week for two cycles and measured daily starting from day 1; format: organism-based; conditions: in vivo, 120 h
# [33] = Toxicity in C57BL/6 mouse assessed as induction of kyphosis up to 50 mg/kg, ip administered for 5 days/week for two cycles and measured daily starting from day 1; format: organism-based; conditions: in vivo, 120 h
# [34] = Toxicity in C57BL/6 mouse assessed as effect on stool up to 50 mg/kg, ip administered for 5 days/week for two cycles and measured daily starting from day 1; format: organism-based; conditions: in vivo, 120 h
# [35] = Toxicity in C57BL/6 mouse assessed as effect on WBC level at 50 mg/kg, ip administered for 5 days/week for two cycles and measured 60 mins post last dose by beckman coulter counting method relative to control; format: organism-based; conditions: in vivo, 1 h
# [36] = Toxicity in C57BL/6 mouse assessed as induction of diarrhea up to 50 mg/kg, ip administered for 5 days/week for two cycles and measured daily starting from day 1; format: organism-based; conditions: in vivo, 120 h
compound,measurement,setting,value
O=C(NO)c1ccc(Cn2nnnc2-c2cccs2)cc1,AUC at 6 h,[1],94 ng·h/mL
same,IC50,697,> 1000 nM
same,Activity,[2],Non-Toxic
same,"remaining at 4 h, 100 µM",[3],91%
same,concentration at 5 min,[4],685 ng/mL
same,Activity,[5],Non-Toxic
same,Drug uptake,[6],Bld
same,Activity,[7],Non-Toxic
same,Cmax,[8],238 ng/mL
same,bioavailability,[9],25%
same,Activity,[10],-5%
same,bioavailability,[11],19%
same,Activity,[12],Non-Toxic
same,half-life at 6 h,[13],60 min
same,Tmax,[14],4.8 min
same,Activity,[15],Non-Toxic
same,"remaining at […], 5 µM",[16],100%
same,Activity,[17],-4%
same,clearance at 6 h,[18],172 mL/min/kg
same,Activity,[19],Non-Toxic
same,Activity,[20],2.2%
same,Vd at 6 h,[21],4.8 L/kg
same,Activity,[22],-11%
same,inhibition,Mus musculus,Active
same,"remaining at 4 h, 100 µM",[23],62%
same,MTD at 120 h,[24],> 50 mg/kg
same,Activity,[25],-1%
same,IC50,PBMC,> 1000 nM
same,Activity,[26],-7%
same,"remaining at […], 5 µM",[27],82%
same,Activity,[28],3.5%
same,Activity,[29],1.4%
same,bioavailability,[30],16%
same,Activity,[31],Non-Toxic
same,Activity,[32],Non-Toxic
same,Activity,[33],Non-Toxic
same,Activity,[34],Non-Toxic
same,Activity,[35],-15%
same,Activity,[36],Non-Toxic
